Measured values: PubChem BioAssay AID977614 (Broad Institute, 2014)
Active and inactive are the calls of the source.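 Rule for the calls: active = parasite count per well reduced by over 3 SD from the mean, with host cell number above 80% of untreated; inactive = the rest.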

System: L. donovani amastigotes in THP-1 macrophages, DAPI imaging, 72 h
Experiment: L. donovani intracellular amastigote growth inhibitors, imaging, THP-1 host macrophages, single concentration (AID 977614);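 note: signal is the parasite per host cell ratio from DAPI stained kinetoplasts and nuclei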

| SMILES | AC50 |
| --- | --- |
| OC[C@@H]1[C@H]2c3ccccc3NC[C@H]2N1CC1CCOCC1 | > 10 µM (inactive) |
| CCC(=O)N1[C@@H](CO)[C@@H](c2ccccc2)[C@@H]1CN(CC)C(=O)c1cccc(F)c1 | > 10 µM (inactive) |
| C[C@H]1CN([C@@H](C)CO)C(=O)CCCn2cc(nn2)CO[C@H]1CN(C)C(=O)Oc1ccc2ccccc2c1 | > 10 µM (inactive) |
| CCCNC(=O)N1[C@H](CNC(=O)c2cccc(F)c2)[C@@H](c2ccccc2)[C@@H]1CO | > 10 µM (inactive) |
| C[C@@H]1CN([C@@H](C)CO)C(=O)CCCn2nncc2CO[C@H]1CN(C)C(=O)c1ccc2ccn(C)c2c1 | > 10 µM (inactive) |
| COCC(=O)N1[C@@H]2CN(C(=O)Nc3ccccc3Cl)c3ccccc3[C@@H]2[C@@H]1CO | > 10 µM (inactive) |
| COCC(=O)N1[C@@H](CO)[C@@H]2c3ccccc3NC[C@@H]21 | > 10 µM (inactive) |
| COCC(=O)N(C[C@@H]1[C@@H](c2ccccc2)[C@@H](CO)N1C(=O)NC(C)C)C(C)C | > 10 µM (inactive) |
| C[C@@H]1CN([C@H](C)CO)C(=O)CCCn2nncc2CO[C@H]1CN(C)C(=O)Nc1ccnc(N2CCOCC2)c1 | > 10 µM (inactive) |
| C/C=C/c1ccc([C@H]2[C@@H](CO)N(C(=O)CC)[C@H]2CN(C)Cc2cncnc2)cc1 | > 10 µM (inactive) |
| C[C@@H]1CN([C@@H](C)CO)C(=O)CCCn2nncc2CO[C@@H]1CN(C)C(=O)c1ccc2ccn(C)c2c1 | > 10 µM (inactive) |
| COCCN(C[C@H]1[C@H](c2ccccc2)[C@@H](CO)N1C(=O)C1CC1)C(C)=O | > 10 µM (inactive) |
| O=C(C1CCC1)N1C[C@H]2[C@@H](c3ccccc31)[C@H](CO)N2C(=O)Nc1cccc(F)c1 | > 10 µM (inactive) |
| C[C@H](CO)N1C[C@H](C)[C@@H](CN(C)C(=O)c2ccc(N3CCN(C)CC3)cc2)OCc2cn(nn2)CCCC1=O | > 10 µM (inactive) |
| C[C@H](CO)N1C[C@H](C)[C@@H](CN(C)C(=O)NC2CCCCC2)OCc2cn(nn2)CCCC1=O | > 10 µM (inactive) |
| C[C@H](CO)N1C[C@H](C)[C@H](CN(C)C(=O)c2ccc3ccn(C)c3c2)OCc2cnnn2CCCC1=O | > 10 µM (inactive) |
| C[C@H](CO)N1C[C@H](C)[C@H](CN(C)S(=O)(=O)c2cn(C)cn2)OCc2cnnn2CCCC1=O | > 10 µM (inactive) |
| COc1ccc(C(=O)N2C[C@@H]3[C@H](c4ccccc42)[C@H](CO)N3C(=O)Cc2ccccn2)cc1 | > 10 µM (inactive) |
| COc1ccccc1-c1ccc([C@H]2[C@@H](CO)N(C(C)=O)[C@@H]2CN(C)C(C)=O)cc1 | > 10 µM (inactive) |
| COc1ccccc1S(=O)(=O)N(C)C[C@@H]1OCc2cn(nn2)CCCC(=O)N([C@@H](C)CO)C[C@H]1C | > 10 µM (inactive) |
| Cc1ccc(S(=O)(=O)N2C[C@@H]3[C@H](c4ccccc42)[C@H](CO)N3Cc2cccnc2)cc1 | > 10 µM (inactive) |
| CC(=O)N1[C@@H](CO)[C@H](c2ccccc2)[C@@H]1CN(CC(C)C)C(=O)c1ccccn1 | > 10 µM (inactive) |
| O=C(NC[C@H]1[C@@H](c2ccccc2)[C@H](CO)N1C(=O)Cc1ccncc1)C1CCC1 | > 10 µM (inactive) |
| CCCN1[C@H](CO)[C@H](c2ccc(C#CC(C)C)cc2)[C@@H]1CN(C)S(C)(=O)=O | > 10 µM (inactive) |
| C/C=C/c1ccc([C@@H]2[C@H](CO)N(C(C)=O)[C@H]2CN(C(C)=O)C2CCCC2)cc1 | > 10 µM (inactive) |
| COCC(=O)N1[C@H](CO)[C@@H]2c3ccccc3N(C(=O)Nc3ccccc3Cl)C[C@@H]21 | > 10 µM (inactive) |

| SMILES | AC50 |
| --- | --- |
| C[C@@H]1CN([C@H](C)CO)C(=O)CCCn2cc(nn2)CO[C@H]1CN(C)Cc1ccccc1 | > 10 µM (inactive) |
| O=C(CC(F)(F)F)N1C[C@@H]2[C@H](c3ccccc31)[C@@H](CO)N2CC1CCOCC1 | > 10 µM (inactive) |
| CN1[C@@H]2CN(C(=O)Nc3cc(F)ccc3F)c3ccccc3[C@@H]2[C@@H]1CO | > 10 µM (inactive) |
| C/C=C/c1ccc([C@H]2[C@@H](CO)N(C(C)=O)[C@@H]2CNC(=O)c2ccccc2)cc1 | > 10 µM (inactive) |
| C[C@@H]1CN([C@H](C)CO)C(=O)CCCn2cc(nn2)CO[C@H]1CN(C)C(=O)NC1CCCCC1 | > 10 µM (inactive) |
| CCN(C[C@@H]1[C@@H](c2ccccc2)[C@@H](CO)N1C(C)=O)C(=O)NC1CCCC1 | > 10 µM (inactive) |
| C/C=C/c1ccc([C@H]2[C@@H](CO)N[C@@H]2CN(C(=O)c2ccccc2F)C(C)C)cc1 | > 10 µM (inactive) |
| C[C@H]1CN([C@@H](C)CO)C(=O)CCCn2cc(nn2)CO[C@@H]1CN(C)C(=O)CCC(F)(F)F | > 10 µM (inactive) |
| C[C@H]1CN([C@@H](C)CO)C(=O)CCCn2nncc2CO[C@H]1CN(C)C(=O)Nc1ccc(-c2cccs2)cc1 | > 10 µM (inactive) |
| CN1[C@@H](CO)[C@@H]2c3ccccc3NC[C@@H]21 | > 10 µM (inactive) |
| O=C(c1ccccn1)N1C[C@H]2[C@@H](c3ccccc31)[C@@H](CO)N2C(=O)Nc1ccccc1Cl | > 10 µM (inactive) |
| CCC(=O)N1[C@H](CO)[C@@H](c2ccccc2)[C@@H]1CN(C)C(=O)CN1CCOCC1 | > 10 µM (inactive) |
| O=C(Cc1ccccc1)N1C[C@H]2[C@@H](c3ccccc31)[C@H](CO)N2S(=O)(=O)c1ccccc1 | > 10 µM (inactive) |
| O=C(Nc1cccc(Cl)c1)N1C[C@@H]2[C@H](c3ccccc31)[C@@H](CO)N2Cc1cccnc1 | > 10 µM (inactive) |
| COc1ccc(C(=O)N2C[C@@H]3[C@H](c4ccccc42)[C@@H](CO)N3C(=O)NC(C)C)cc1 | > 10 µM (inactive) |
| C[C@H]1CN([C@@H](C)CO)C(=O)CCCn2cc(nn2)CO[C@H]1CN(C)C(=O)Nc1cccc2ccccc12 | > 10 µM (inactive) |
| C[C@@H]1CN([C@@H](C)CO)C(=O)CCCn2nncc2CO[C@H]1CN(C)C(=O)c1cc(-c2ccccc2)on1 | > 10 µM (inactive) |
| C[C@@H]1CN([C@@H](C)CO)C(=O)CCCn2cc(nn2)CO[C@H]1CN(C)S(=O)(=O)c1ccc(-n2cccn2)cc1 | > 10 µM (inactive) |
| COc1ccc(CN2[C@H](CO)[C@H]3c4ccccc4N(C(=O)NC(C)C)C[C@H]32)cc1 | > 10 µM (inactive) |
| C[C@H](CO)N1C[C@H](C)[C@H](CN(C)S(=O)(=O)c2ccc3c(c2)OCCCO3)OCc2cnnn2CCCC1=O | > 10 µM (inactive) |
| O=C(CC(F)(F)F)N1C[C@@H]2[C@H](c3ccccc31)[C@H](CO)N2C(=O)c1ccncc1 | > 10 µM (inactive) |
| CC(=O)N1[C@H](CO)[C@H](c2ccc(-c3ccccc3F)cc2)[C@@H]1CNC(C)C | > 10 µM (inactive) |
| COCC(=O)NC[C@H]1[C@H](c2ccccc2)[C@H](CO)N1C(=O)c1ccccc1 | > 10 µM (inactive) |
| C[C@@H]1CN([C@@H](C)CO)C(=O)CCCn2cc(nn2)CO[C@@H]1CN(C)S(=O)(=O)c1cn(C)cn1 | > 10 µM (inactive) |
| CCN(C[C@H]1[C@H](c2ccc(C3=CCCCC3)cc2)[C@H](CO)N1CC1CC1)C(C)=O | > 10 µM (inactive) |
| C[C@H](CO)N1C[C@H](C)[C@@H](CN(C)S(=O)(=O)c2ccc(-n3cccn3)cc2)OCc2cn(nn2)CCCC1=O | > 10 µM (inactive) |

| SMILES | AC50 |
| --- | --- |
| O=C(c1cccc(F)c1)N1C[C@@H]2[C@H](c3ccccc31)[C@H](CO)N2Cc1cocn1 | > 10 µM (inactive) |
| C/C=C/c1ccc([C@H]2[C@@H](CO)N[C@@H]2CN(CC)C(=O)CN2CCOCC2)cc1 | > 10 µM (inactive) |
| C/C=C/c1ccc([C@H]2[C@@H](CO)N(C(C)=O)[C@@H]2CN(CC)C(=O)CN(C)C)cc1 | > 10 µM (inactive) |
| CCC(=O)N1[C@H](CO)[C@@H]2c3ccccc3N(S(=O)(=O)c3ccc(F)cc3)C[C@@H]21 | > 10 µM (inactive) |
| COc1ccccc1C(=O)N1C[C@H]2[C@@H](c3ccccc31)[C@@H](CO)N2CC1CCCC1 | > 10 µM (inactive) |
| O=C(c1ccc2c(c1)OCO2)N1C[C@H]2[C@@H](c3ccccc31)[C@@H](CO)N2C(=O)CC1CC1 | > 10 µM (inactive) |
| COc1ccccc1C(=O)N1C[C@H]2[C@@H](c3ccccc31)[C@@H](CO)N2C(=O)Cc1ccccc1 | > 10 µM (inactive) |
| C/C=C/c1ccc([C@@H]2[C@@H](CN(C)C(=O)CC3CC3)N(C(=O)C3CC3)[C@H]2CO)cc1 | > 10 µM (inactive) |
| C[C@H](CO)N1C[C@H](C)[C@H](CN(C)C(=O)Nc2ccc3c(c2)OCCO3)OCc2cnnn2CCCC1=O | > 10 µM (inactive) |
| COc1ccccc1NC(=O)N1C[C@H]2[C@@H](c3ccccc31)[C@H](CO)N2Cc1ccc2c(c1)OCO2 | > 10 µM (inactive) |
| CC(C)NC(=O)N1[C@H](CO)[C@@H]2c3ccccc3NC[C@@H]21 | > 10 µM (inactive) |
| C[C@@H]1CN([C@H](C)CO)C(=O)CCCn2nncc2CO[C@H]1CN(C)CC1CCCCC1 | > 10 µM (inactive) |
| CN1[C@H](CO)[C@@H]2c3ccccc3N(C(=O)Nc3cc(F)ccc3F)C[C@@H]21 | > 10 µM (inactive) |
| CN1C[C@@H]2[C@H](c3ccccc31)[C@H](CO)N2C(=O)c1cccnc1 | > 10 µM (inactive) |
| OC[C@H]1[C@H]2c3ccccc3NC[C@H]2N1Cc1cccnc1 | > 10 µM (inactive) |
| C/C=C/c1ccc([C@H]2[C@H](CO)N[C@H]2CN(CC(C)C)C(=O)c2ccccn2)cc1 | > 10 µM (inactive) |
| COc1cccc(NC(=O)N2[C@@H](CO)[C@@H](c3ccccc3)[C@@H]2CNCC(C)C)c1 | > 10 µM (inactive) |
| CCC(=O)N1C[C@H]2[C@@H](c3ccccc31)[C@H](CO)N2Cc1ccc(F)cc1 | > 10 µM (inactive) |
| CC(C)N(C[C@@H]1[C@@H](c2ccccc2)[C@@H](CO)N1S(C)(=O)=O)C(=O)CN(C)C | > 10 µM (inactive) |
| CCCNC(=O)N1[C@@H]2CN(C(=O)c3ccncc3)c3ccccc3[C@@H]2[C@@H]1CO | > 10 µM (inactive) |
| CC(=O)N1C[C@@H]2[C@H](c3ccccc31)[C@H](CO)N2Cc1ccc(Cl)cc1 | > 10 µM (inactive) |
| Cc1noc(C)c1NC(=O)N(C)C[C@H]1OCc2cn(nn2)CCCC(=O)N([C@H](C)CO)C[C@H]1C | > 10 µM (inactive) |
| CC(=O)N1[C@H](CN(CC2CCC2)C(=O)CN(C)C)[C@@H](c2ccccc2)[C@@H]1CO | > 10 µM (inactive) |
| O=C(Nc1ccc(Cl)cc1)N1C[C@@H]2[C@H](c3ccccc31)[C@@H](CO)N2CC1CCCCC1 | > 10 µM (inactive) |
